Measured values taken from ChEMBL document CHEMBL5465560, “Selectivity Literature for EUbOPEN Chemogenomic Library” (2024).
One block for each compound: values may come before it.

Legend:
[1] = molecular target: Cyclin-dependent kinase 14 (Homo sapiens) (UniProt O94921); experiment: Selectivity interaction (Ambit KINOMEscan and KiNATiv profiling in Jurkat cells) EUB0000090b CDK14; format: cell-based; settings: at 1 µM
[2] = molecular target: T1, Tyrosine-protein kinase Mer (Homo sapiens) (UniProt Q12866); experiment: Selectivity interaction (Kinase panel (DSF assay)) EUB0001558a MERTK
T1 sequence (whole entry): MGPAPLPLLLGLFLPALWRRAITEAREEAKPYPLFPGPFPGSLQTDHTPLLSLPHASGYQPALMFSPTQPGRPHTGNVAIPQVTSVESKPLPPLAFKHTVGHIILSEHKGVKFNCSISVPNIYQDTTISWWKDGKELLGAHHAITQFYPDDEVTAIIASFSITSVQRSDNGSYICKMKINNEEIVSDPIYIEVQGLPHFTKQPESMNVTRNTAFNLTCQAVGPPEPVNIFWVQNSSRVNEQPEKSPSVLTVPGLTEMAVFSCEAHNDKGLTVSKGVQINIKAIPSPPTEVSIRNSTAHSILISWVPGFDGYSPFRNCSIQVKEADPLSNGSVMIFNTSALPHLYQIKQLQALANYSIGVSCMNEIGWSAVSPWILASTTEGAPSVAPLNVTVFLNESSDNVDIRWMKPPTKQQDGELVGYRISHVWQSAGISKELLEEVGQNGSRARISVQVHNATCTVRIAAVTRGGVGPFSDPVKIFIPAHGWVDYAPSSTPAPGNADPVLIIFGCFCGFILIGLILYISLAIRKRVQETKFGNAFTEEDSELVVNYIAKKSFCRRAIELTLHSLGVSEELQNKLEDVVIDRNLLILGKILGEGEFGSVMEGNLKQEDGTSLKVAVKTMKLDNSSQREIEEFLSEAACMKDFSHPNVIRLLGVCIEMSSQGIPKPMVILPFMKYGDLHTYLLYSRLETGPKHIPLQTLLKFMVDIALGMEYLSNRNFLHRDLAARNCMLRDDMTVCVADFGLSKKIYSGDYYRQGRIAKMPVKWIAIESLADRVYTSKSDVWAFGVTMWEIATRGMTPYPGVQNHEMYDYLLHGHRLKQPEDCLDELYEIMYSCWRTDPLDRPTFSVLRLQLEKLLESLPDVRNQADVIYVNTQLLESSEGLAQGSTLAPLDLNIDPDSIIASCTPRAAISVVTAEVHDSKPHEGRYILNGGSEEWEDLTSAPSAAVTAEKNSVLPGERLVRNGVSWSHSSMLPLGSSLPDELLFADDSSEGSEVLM

[3] = molecular target: eIF-2-alpha kinase GCN2 (Homo sapiens) (UniProt Q9P2K8); experiment: Selectivity interaction (ActivX KiNativ screen (kinase selectivity in THP-1 cell lysates)) EUB0000639a EIF2AK4; format: subcellular; settings: lysate, at 0.2 µM
eIF-2-alpha kinase GCN2 (Homo sapiens), sequence (Q9P2K8 whole entry): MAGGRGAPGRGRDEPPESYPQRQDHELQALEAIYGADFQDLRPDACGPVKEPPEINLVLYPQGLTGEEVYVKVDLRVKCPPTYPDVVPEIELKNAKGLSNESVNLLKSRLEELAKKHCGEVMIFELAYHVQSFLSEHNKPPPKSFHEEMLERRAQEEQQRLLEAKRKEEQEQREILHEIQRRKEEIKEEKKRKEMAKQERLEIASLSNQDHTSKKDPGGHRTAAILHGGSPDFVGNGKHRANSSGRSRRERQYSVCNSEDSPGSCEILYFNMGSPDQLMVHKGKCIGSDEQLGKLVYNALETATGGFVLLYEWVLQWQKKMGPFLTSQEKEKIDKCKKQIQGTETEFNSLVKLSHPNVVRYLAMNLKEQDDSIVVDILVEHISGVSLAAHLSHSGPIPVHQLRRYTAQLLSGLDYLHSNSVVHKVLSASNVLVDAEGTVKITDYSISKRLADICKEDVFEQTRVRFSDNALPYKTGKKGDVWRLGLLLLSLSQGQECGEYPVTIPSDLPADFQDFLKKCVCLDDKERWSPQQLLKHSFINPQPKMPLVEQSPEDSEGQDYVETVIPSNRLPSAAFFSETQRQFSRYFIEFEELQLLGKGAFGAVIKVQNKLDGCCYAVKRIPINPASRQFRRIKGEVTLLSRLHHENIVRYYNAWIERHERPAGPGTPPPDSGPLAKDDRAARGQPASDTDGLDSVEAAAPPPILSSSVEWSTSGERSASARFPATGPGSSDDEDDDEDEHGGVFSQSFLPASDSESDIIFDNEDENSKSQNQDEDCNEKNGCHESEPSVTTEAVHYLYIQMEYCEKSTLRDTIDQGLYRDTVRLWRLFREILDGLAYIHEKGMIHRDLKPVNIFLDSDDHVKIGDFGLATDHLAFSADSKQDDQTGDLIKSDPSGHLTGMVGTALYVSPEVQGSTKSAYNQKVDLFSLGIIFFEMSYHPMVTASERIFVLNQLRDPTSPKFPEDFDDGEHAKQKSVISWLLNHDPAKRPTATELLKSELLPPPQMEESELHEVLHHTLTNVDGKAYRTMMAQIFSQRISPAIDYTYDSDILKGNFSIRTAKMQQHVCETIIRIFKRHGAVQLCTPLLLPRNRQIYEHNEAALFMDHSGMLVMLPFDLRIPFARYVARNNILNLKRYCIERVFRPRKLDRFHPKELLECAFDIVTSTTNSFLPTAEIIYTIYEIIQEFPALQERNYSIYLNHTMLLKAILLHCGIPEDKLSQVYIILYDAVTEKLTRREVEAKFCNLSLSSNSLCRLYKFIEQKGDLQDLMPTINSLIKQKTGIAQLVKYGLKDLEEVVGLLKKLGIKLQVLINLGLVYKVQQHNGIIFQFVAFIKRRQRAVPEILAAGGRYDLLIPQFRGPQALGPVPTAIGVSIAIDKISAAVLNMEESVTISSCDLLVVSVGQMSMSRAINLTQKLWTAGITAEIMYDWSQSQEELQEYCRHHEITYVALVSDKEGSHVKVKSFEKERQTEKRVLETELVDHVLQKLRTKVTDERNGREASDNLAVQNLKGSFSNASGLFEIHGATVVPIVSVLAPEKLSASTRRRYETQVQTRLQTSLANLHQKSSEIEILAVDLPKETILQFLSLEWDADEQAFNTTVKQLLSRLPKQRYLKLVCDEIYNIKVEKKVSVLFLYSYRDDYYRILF

[4] = molecular target: Mitogen-activated protein kinase 7 (Homo sapiens) (UniProt Q13164); experiment: Selectivity interaction (ActivX KiNativ screen (kinase selectivity in THP-1 cell lysates)) EUB0000639a MAPK7; format: subcellular; settings: lysate
Mitogen-activated protein kinase 7 (Homo sapiens), sequence (Q13164 2-816 limits assumed): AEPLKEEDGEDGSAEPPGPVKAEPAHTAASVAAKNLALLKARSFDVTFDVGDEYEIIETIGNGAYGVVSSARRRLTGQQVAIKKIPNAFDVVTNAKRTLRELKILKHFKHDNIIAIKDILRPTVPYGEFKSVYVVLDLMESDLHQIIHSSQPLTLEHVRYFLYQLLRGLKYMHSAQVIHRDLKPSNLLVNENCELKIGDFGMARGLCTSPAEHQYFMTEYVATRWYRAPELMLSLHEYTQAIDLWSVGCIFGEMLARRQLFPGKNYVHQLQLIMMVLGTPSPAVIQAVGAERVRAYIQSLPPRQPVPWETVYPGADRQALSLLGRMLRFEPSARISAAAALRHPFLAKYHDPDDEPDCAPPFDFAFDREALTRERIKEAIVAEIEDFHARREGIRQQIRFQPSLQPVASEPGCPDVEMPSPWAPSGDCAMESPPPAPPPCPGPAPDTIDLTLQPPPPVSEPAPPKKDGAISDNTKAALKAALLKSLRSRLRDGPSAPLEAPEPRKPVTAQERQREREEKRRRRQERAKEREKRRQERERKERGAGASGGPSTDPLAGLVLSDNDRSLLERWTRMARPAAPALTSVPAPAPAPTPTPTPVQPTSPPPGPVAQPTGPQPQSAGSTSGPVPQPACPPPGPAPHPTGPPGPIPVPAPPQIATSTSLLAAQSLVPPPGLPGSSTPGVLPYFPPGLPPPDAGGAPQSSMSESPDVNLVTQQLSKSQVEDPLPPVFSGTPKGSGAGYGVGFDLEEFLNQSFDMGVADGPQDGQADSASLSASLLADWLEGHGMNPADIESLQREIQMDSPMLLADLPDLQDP

[5] = molecular target: Cyclin-dependent kinase 16 (Homo sapiens) (UniProt Q00536); experiment: Selectivity interaction (KinomeScan (DiscoverX)) EUB0001049a CDK16; settings: at 1 µM
Cyclin-dependent kinase 16 (Homo sapiens), sequence (Q00536 whole entry): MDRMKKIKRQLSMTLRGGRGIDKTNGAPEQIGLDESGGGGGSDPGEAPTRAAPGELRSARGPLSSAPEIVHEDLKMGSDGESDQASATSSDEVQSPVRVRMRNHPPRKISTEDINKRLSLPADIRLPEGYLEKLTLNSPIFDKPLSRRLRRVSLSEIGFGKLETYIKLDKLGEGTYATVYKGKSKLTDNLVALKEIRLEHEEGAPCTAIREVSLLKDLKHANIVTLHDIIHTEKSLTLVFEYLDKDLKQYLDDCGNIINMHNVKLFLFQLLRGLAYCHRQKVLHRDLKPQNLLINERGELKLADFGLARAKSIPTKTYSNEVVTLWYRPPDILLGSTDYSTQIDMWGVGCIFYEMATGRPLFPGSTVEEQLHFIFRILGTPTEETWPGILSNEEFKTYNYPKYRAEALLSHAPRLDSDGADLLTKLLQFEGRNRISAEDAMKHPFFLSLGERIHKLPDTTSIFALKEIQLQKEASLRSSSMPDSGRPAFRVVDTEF

[6] = molecular target: T2, cAMP-dependent protein kinase catalytic subunit PRKX (Homo sapiens) (UniProt P51817); experiment: Selectivity interaction (KinomeScan (DiscoverX)) EUB0000666a PRKX; settings: at 10 µM
T2 sequence (whole entry): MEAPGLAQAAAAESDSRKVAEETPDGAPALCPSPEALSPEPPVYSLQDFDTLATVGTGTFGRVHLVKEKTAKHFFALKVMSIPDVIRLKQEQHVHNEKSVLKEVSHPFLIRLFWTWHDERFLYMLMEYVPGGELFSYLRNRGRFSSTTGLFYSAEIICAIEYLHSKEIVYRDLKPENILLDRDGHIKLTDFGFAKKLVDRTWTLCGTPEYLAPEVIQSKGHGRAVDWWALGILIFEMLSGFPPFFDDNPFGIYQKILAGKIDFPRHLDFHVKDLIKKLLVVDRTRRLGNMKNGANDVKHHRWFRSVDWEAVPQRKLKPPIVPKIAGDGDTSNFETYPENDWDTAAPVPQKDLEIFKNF

[7] = molecular target: T3, Non-receptor tyrosine-protein kinase TNK1 (Homo sapiens) (UniProt Q13470); experiment: Selectivity interaction (Kinase panel (Carna Biosciences)) EUB0001542aTs TNK1; settings: at 1 µM
T3 sequence (whole entry): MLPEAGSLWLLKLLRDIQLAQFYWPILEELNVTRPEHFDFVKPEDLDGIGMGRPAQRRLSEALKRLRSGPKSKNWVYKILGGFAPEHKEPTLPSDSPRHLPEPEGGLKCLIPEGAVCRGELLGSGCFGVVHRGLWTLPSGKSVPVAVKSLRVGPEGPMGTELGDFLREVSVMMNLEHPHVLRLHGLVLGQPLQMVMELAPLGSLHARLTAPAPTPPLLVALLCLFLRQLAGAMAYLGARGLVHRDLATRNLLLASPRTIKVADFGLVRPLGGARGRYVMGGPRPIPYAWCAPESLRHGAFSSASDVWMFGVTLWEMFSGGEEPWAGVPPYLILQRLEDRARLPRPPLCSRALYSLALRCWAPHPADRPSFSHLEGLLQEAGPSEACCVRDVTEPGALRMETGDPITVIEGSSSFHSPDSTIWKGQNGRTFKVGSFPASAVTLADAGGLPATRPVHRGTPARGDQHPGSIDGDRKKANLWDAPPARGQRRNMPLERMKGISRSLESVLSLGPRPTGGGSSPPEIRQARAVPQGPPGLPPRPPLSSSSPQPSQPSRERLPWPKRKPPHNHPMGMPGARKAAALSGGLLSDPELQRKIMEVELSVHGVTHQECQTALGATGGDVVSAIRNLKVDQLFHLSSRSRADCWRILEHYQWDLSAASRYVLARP

Cyclin-dependent kinase 14 (Homo sapiens), sequence (O94921 whole entry): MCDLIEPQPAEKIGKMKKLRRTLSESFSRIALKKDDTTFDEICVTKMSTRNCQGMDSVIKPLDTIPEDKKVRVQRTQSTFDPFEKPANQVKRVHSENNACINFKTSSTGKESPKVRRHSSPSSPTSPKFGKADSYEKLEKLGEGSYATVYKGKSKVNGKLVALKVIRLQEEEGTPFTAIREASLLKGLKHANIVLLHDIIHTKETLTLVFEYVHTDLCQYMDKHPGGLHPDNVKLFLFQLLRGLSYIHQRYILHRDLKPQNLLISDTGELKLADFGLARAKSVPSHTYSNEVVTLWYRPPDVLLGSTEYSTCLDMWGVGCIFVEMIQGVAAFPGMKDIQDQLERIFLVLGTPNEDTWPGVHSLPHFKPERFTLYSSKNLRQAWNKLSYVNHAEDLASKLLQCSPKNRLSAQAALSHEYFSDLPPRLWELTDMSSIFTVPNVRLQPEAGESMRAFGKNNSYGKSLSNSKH

SMILES: CN(C)C/C=C/C(=O)Nc1ccc(C(=O)N2CCCC(Nc3ncc(Cl)c(-c4c[nH]c5ccccc45)n3)C2)cc1 (stereo unspecified)
% of control [1]: 69%

SMILES: CC(C)(O)[C@H](F)CN1Cc2cc(NC(=O)c3cnn4cccnc34)c(N3CCOCC3)cc2C1=O
dTM [2]: 1.7 K

% of inhibition [3]: 1.7% | % of inhibition ([4]; at 0.01 µM): -4.2% | % of inhibition ([4]; at 0.04 µM): 1.9% | % of inhibition ([4]; at 0.2 µM): -8.8% | % of inhibition ([4]; at 1 µM): -11.9% | % of inhibition ([4]; at 5 µM): 15.7%
SMILES: CC[C@@H]1[C@H](F)C(=O)N[C@@H]1COc1nccc2cc(C(N)=O)c(OC)cc12 [ZIMLOVISERTIB]

SMILES: COc1cc(Nc2nc(C)cc(-c3cnn4nc(OC)ccc34)n2)cc(C(F)(F)F)c1
% of control [5]: 74%

SMILES: O=C(NOC[C@H](O)CO)c1ccc(F)c(F)c1Nc1ccc(I)cc1F
% of control [6]: 100%

% of inhibition [7]: 94%
SMILES: Cn1cc(Nc2nccc(N3CC4CCC(C3)N4C(=O)[C@@H]3CC3(F)F)n2)cn1
